Values joined by “and” are separate entries in the source; they are usually repeats but may differ in a detail not shown here. Equal entries are not always repeated. Where two headings read alike, the source gives them in different places.
Experiment: Pharmacokinetic study in male Sprague Dawley rats
Format: in vivo, rat
Details: for concentration at 0.033 h / concentration at 0.33 h / concentration at 1 h / concentration at 2 h / concentration at 4 h / concentration at 8 h / concentration at 24 h: male, Sprague Dawley
Method: The pharmacokinetic (PK) profile in plasma of Compound 1 was determined in male Sprague Dawley rats following single dose intravenous (IV) (2 mg/kg) and per os (PO) (10 mg/kg) administration. This study was performed under non-GLP conditions, and unless otherwise stated, all analytical reagents were at least standard laboratory reagent grade, and deionized water was prepared at the study site.
The characteristics of Compound 1 used in this study were as follows: molecular weight of base, 710.78; molecular weight of Compound 1 with salt, 824.81; purity on as is basis, 99.28%.
All animals were housed in cages with clean bedding and maintained and monitored for good health and at the discretion of the laboratory animal veterinarian. Certified rodent diet was provided, and water was available ad libitum. Environmental controls for the animal room were set to maintain a temperature of 22 to 25° C., humidity of 40-70% relative humidity, and a 12-hour light/12-hour dark cycle.
Normal healthy animals certified by the attending veterinarian were selected and acclimatized for a minimum of three days prior to initiation of the study. Animals were identified by body markings.
The rats were anaesthetized with a single dose of ketamine 50 mg/kg i.p. plus xylazine 6 mg/kg i.p. The right jugular was exposed, and a loose ligature was placed caudally, and the cranial end of the vein was ligated. A small incision was made between the ligatures into which a catheter (polyethylene 50 tubing with an internal diameter of 0.58 mm and outer diameter of 0.96 mm) was inserted. The catheter was secured in place by tying the loose ligature around the catheterized vessel. A small incision was made in the scapular region to serve as the exit site of the catheter. The catheter was subcutaneously tunneled and exteriorized through the scapular incision. A stay suture was placed in the scapular area. Patency was tested, and the catheter was filled with a locking solution (heparinized saline) and sealed with a stainless-steel plug. The incision was then sutured with sterile suturing material. Anti-septic solution was applied to the sutured site and the animal was placed back in its home cage. The animals were closely observed throughout the recovery period of 24 hours. The rats were freely moving in the cage (one rat per cage).
Test animals were weighed prior to drug administration, and the standard weight of the animals used was 190 grams. The animals were divided into two groups, IV group and PO group, with each group containing 3 test animals each and 2 spare animals. The IV dose was administered by intravenous injection into the tail vein and PO dose was administered via oral gavage needle. The dosing volume was 5 mL/kg body weight for both groups. The dosing concentration was 0.4 mg/mL for the IV group and 2 mg/mL for the PO group. The animals were in fasted state during the study.
For both dosing groups, blood was collected from the jugular vein (serial sampling) for plasma isolation at 0.033, 0.33, 1, 2, 4, 6, 8, and 24 hour timepoints. The anti-coagulant solution used was 6% (v/v) sodium citrate (200 mM, pH 4.79).
For sample collection, the animals were held to remove the first two drops of blood from the cannula to ensure removal of any excess heparinized saline before collection of blood. The external catheter was connected to a syringe and 0.20-0.30 mL of blood was collected in the syringe and transferred to a pre-labeled, pre-chilled tube. Blood volume was replaced by administering to the animal an equal volume of saline through the jugular vein. After blood collection from each animal, the sample from that animal was recorded in the sample collection sheet.
After collection of each blood sample, the blood sample was stored on ice prior to centrifugation. Blood samples were centrifuged within 20 minutes of collection to separate plasma. Centrifugation was conducted at 2500×g for 15 minutes at 4° C. […]

[1] = rat, plasma, 2 mg/kg IV, Male Sprague Dawley Rats, mean
[2] = rat, plasma, 10 mg/kg PO, Male Sprague Dawley Rats, mean

SMILES: COc1cc(-c2cn(C)c(=O)c(C)c2C)cc(OC)c1CN1CC[C@H](N2CCN(c3ccc(N[C@H]4CCC(=O)NC4=O)cc3F)CC2)C(F)(F)C1 [Compound 1, (S)-3-((4-(4-((S)-1-(2,6-dimethoxy-4-(1,4,5-trimethyl-6-oxo-1,6-dihydropyridin-3-yl)benzyl)-3,3-difluoropiperidin-4-yl)piperazin-1-yl)-3-fluorophenyl)amino)-piperidine-2,6-dione]
- Plasma Concentration, individual rats (2 mg/kg IV, 0.033 h): 827.34 ng/mL and 751.46 ng/mL
- Plasma Concentration, individual rats (2 mg/kg IV, 0.33 h): 387.61 ng/mL and 411.63 ng/mL
- Plasma Concentration, individual rats (2 mg/kg IV, 1 h): 253.11 ng/mL and 196.32 ng/mL
- Plasma Concentration, individual rats (2 mg/kg IV, 2 h): 175.63 ng/mL and 182.50 ng/mL
- Plasma Concentration, individual rats (2 mg/kg IV, 4 h): 82.15 ng/mL and 113.01 ng/mL
- Plasma Concentration, individual rats (2 mg/kg IV, 8 h): 66.27 ng/mL and 68.01 ng/mL
- Plasma Concentration, individual rats (2 mg/kg IV, 24 h): 2.51 ng/mL and 4.24 ng/mL
- CI (2 mg/kg IV, Male Sprague Dawley Rats, mean): 21.64 mL/min/kg
- concentration at 0.033 h (rat, plasma, intravenous, 2 mg/kg, 2 mg/kg IV, 0.033 h, read-out: Plasma Concentration, Average): 811 ng/mL
- concentration at 0.033 h (rat, plasma, intravenous, 2 mg/kg, 2 mg/kg IV, 0.033 h, read-out: Plasma Concentration, individual rats): 854 ng/mL
- concentration at 0.33 h (rat, plasma, intravenous, 2 mg/kg, 2 mg/kg IV, 0.33 h, read-out: Plasma Concentration, Average): 395 ng/mL
- concentration at 0.33 h (rat, plasma, intravenous, 2 mg/kg, 2 mg/kg IV, 0.33 h, read-out: Plasma Concentration, individual rats): 385 ng/mL
- concentration at 1 h (rat, plasma, intravenous, 2 mg/kg, 2 mg/kg IV, 1 h, read-out: Plasma Concentration, Average): 202 ng/mL
- concentration at 1 h (rat, plasma, intravenous, 2 mg/kg, 2 mg/kg IV, 1 h, read-out: Plasma Concentration, individual rats): 158 ng/mL
- concentration at 2 h (rat, plasma, intravenous, 2 mg/kg, 2 mg/kg IV, 2 h, read-out: Plasma Concentration, Average): 181 ng/mL
- concentration at 2 h (rat, plasma, intravenous, 2 mg/kg, 2 mg/kg IV, 2 h, read-out: Plasma Concentration, individual rats): 186 ng/mL
- concentration at 4 h (rat, plasma, intravenous, 2 mg/kg, 2 mg/kg IV, 4 h, read-out: Plasma Concentration, Average): 107 ng/mL
- concentration at 4 h (rat, plasma, intravenous, 2 mg/kg, 2 mg/kg IV, 4 h, read-out: Plasma Concentration, individual rats): 125 ng/mL
- concentration at 8 h (rat, plasma, intravenous, 2 mg/kg, 2 mg/kg IV, 8 h, read-out: Plasma Concentration, Average): 61.9 ng/mL
- concentration at 8 h (rat, plasma, intravenous, 2 mg/kg, 2 mg/kg IV, 8 h, read-out: Plasma Concentration, individual rats): 51.4 ng/mL
- concentration at 24 h (rat, plasma, intravenous, 2 mg/kg, 2 mg/kg IV, 24 h, read-out: Plasma Concentration, Average): 3.76 ng/mL
- concentration at 24 h (rat, plasma, intravenous, 2 mg/kg, 2 mg/kg IV, 24 h, read-out: Plasma Concentration, individual rats): 4.54 ng/mL
- concentration at 0.033 h (rat, plasma, oral, 10 mg/kg, 10 mg/kg PO, Male Sprague Dawley Rats, 0.033 h, Rat-1, read-out: Plasma Concentration (ng/mL) Rat-1): 2.98 ng/mL
- concentration at 0.033 h (rat, plasma, oral, 10 mg/kg, 10 mg/kg PO, Male Sprague Dawley Rats, 0.033 h, Rat-2, read-out: Plasma Concentration (ng/mL) Rat-2): 16.4 ng/mL
- concentration at 0.033 h (rat, plasma, oral, 10 mg/kg, 10 mg/kg PO, Male Sprague Dawley Rats, 0.033 h, Rat-3, read-out: Plasma Concentration (ng/mL) Rat-3): 1.81 ng/mL
- concentration at 0.033 h (rat, plasma, oral, 10 mg/kg, 10 mg/kg PO, Male Sprague Dawley Rats, 0.033 h, average, read-out: Plasma Concentration Average): 7.06 ng/mL
- concentration at 0.33 h (rat, plasma, oral, 10 mg/kg, 10 mg/kg PO, Male Sprague Dawley Rats, 0.33 h, Rat-1, read-out: Plasma Concentration (ng/mL) Rat-1): 215 ng/mL
- concentration at 0.33 h (rat, plasma, oral, 10 mg/kg, 10 mg/kg PO, Male Sprague Dawley Rats, 0.33 h, Rat-2, read-out: Plasma Concentration (ng/mL) Rat-2): 177 ng/mL
- concentration at 0.33 h (rat, plasma, oral, 10 mg/kg, 10 mg/kg PO, Male Sprague Dawley Rats, 0.33 h, Rat-3, read-out: Plasma Concentration (ng/mL) Rat-3): 350 ng/mL
- concentration at 0.33 h (rat, plasma, oral, 10 mg/kg, 10 mg/kg PO, Male Sprague Dawley Rats, 0.33 h, average, read-out: Plasma Concentration Average): 247 ng/mL
- concentration at 1 h (rat, plasma, oral, 10 mg/kg, 10 mg/kg PO, Male Sprague Dawley Rats, 1 h, Rat-1, read-out: Plasma Concentration (ng/mL) Rat-1): 648 ng/mL
- concentration at 1 h (rat, plasma, oral, 10 mg/kg, 10 mg/kg PO, Male Sprague Dawley Rats, 1 h, Rat-2, read-out: Plasma Concentration (ng/mL) Rat-2): 416 ng/mL
- concentration at 1 h (rat, plasma, oral, 10 mg/kg, 10 mg/kg PO, Male Sprague Dawley Rats, 1 h, Rat-3, read-out: Plasma Concentration (ng/mL) Rat-3): 729 ng/mL
- concentration at 1 h (rat, plasma, oral, 10 mg/kg, 10 mg/kg PO, Male Sprague Dawley Rats, 1 h, average, read-out: Plasma Concentration Average): 598 ng/mL
- concentration at 2 h (rat, plasma, oral, 10 mg/kg, 10 mg/kg PO, Male Sprague Dawley Rats, 2 h, Rat-1, read-out: Plasma Concentration (ng/mL) Rat-1): 560 ng/mL
- concentration at 2 h (rat, plasma, oral, 10 mg/kg, 10 mg/kg PO, Male Sprague Dawley Rats, 2 h, Rat-2, read-out: Plasma Concentration (ng/mL) Rat-2): 864 ng/mL
- concentration at 2 h (rat, plasma, oral, 10 mg/kg, 10 mg/kg PO, Male Sprague Dawley Rats, 2 h, Rat-3, read-out: Plasma Concentration (ng/mL) Rat-3): 594 ng/mL
- concentration at 2 h (rat, plasma, oral, 10 mg/kg, 10 mg/kg PO, Male Sprague Dawley Rats, 2 h, average, read-out: Plasma Concentration Average): 673 ng/mL
- concentration at 4 h (rat, plasma, oral, 10 mg/kg, 10 mg/kg PO, Male Sprague Dawley Rats, 4 h, Rat-1, *Outlier: Aberrant value, read-out: Plasma Concentration (ng/mL) Rat-1): 227 ng/mL
- concentration at 4 h (rat, plasma, oral, 10 mg/kg, 10 mg/kg PO, Male Sprague Dawley Rats, 4 h, Rat-2, read-out: Plasma Concentration (ng/mL) Rat-2): 593 ng/mL
- concentration at 4 h (rat, plasma, oral, 10 mg/kg, 10 mg/kg PO, Male Sprague Dawley Rats, 4 h, Rat-3, read-out: Plasma Concentration (ng/mL) Rat-3): 420 ng/mL
- concentration at 4 h (rat, plasma, oral, 10 mg/kg, 10 mg/kg PO, Male Sprague Dawley Rats, 4 h, average, read-out: Plasma Concentration Average): 506 ng/mL
- concentration at 8 h (rat, plasma, oral, 10 mg/kg, 10 mg/kg PO, Male Sprague Dawley Rats, 8 h, Rat-1, read-out: Plasma Concentration (ng/mL) Rat-1): 304 ng/mL
- concentration at 8 h (rat, plasma, oral, 10 mg/kg, 10 mg/kg PO, Male Sprague Dawley Rats, 8 h, Rat-2, read-out: Plasma Concentration (ng/mL) Rat-2): 527 ng/mL
- concentration at 8 h (rat, plasma, oral, 10 mg/kg, 10 mg/kg PO, Male Sprague Dawley Rats, 8 h, Rat-3, read-out: Plasma Concentration (ng/mL) Rat-3): 370 ng/mL
- concentration at 8 h (rat, plasma, oral, 10 mg/kg, 10 mg/kg PO, Male Sprague Dawley Rats, 8 h, average, read-out: Plasma Concentration Average): 400 ng/mL
- concentration at 24 h (rat, plasma, oral, 10 mg/kg, 10 mg/kg PO, Male Sprague Dawley Rats, 24 h, Rat-1, read-out: Plasma Concentration (ng/mL) Rat-1): 21.5 ng/mL
- concentration at 24 h (rat, plasma, oral, 10 mg/kg, 10 mg/kg PO, Male Sprague Dawley Rats, 24 h, Rat-2, read-out: Plasma Concentration (ng/mL) Rat-2): 49.3 ng/mL
- concentration at 24 h (rat, plasma, oral, 10 mg/kg, 10 mg/kg PO, Male Sprague Dawley Rats, 24 h, Rat-3, read-out: Plasma Concentration (ng/mL) Rat-3): 36.8 ng/mL
- concentration at 24 h (rat, plasma, oral, 10 mg/kg, 10 mg/kg PO, Male Sprague Dawley Rats, 24 h, average, read-out: Plasma Concentration Average): 35.8 ng/mL
- AUC(0-inf) [1]: 1540 ng·h/mL
- AUC(0-t) [1]: 1520 ng·h/mL
- C0 [1]: 879 ng/mL
- MRT last [1]: 4.82 h
- half-life [1]: 3.97 h
- Vd (rat, plasma, 2 mg/kg IV, Male Sprague Dawley Rats, mean, read-out: Vdss): 6.7 L/kg
- AUC(0-inf) [2]: 6560 ng·h/mL
- AUC(0-t) [2]: 6290 ng·h/mL
- Cmax [2]: 747 ng/mL
- MRT last [2]: 7.34 h
- Tmax [2]: 1.33 h
- bioavailability [2]: 82.8%
- half-life [2]: 5.12 h
